The nature of series [1]: RP-HPLC retention time used to determine hydrophobicity. It counts as physicochemical. As to conditions: analytical RP-HPLC, C18 Sunfire column (4.6 mm × 150 mm, 3.5 μm); A = 0.05% TFA in water, B = acetonitrile; 10% to 100% B in 20 min then isocratic 100% B 10 min; 217 and 254 nm; used as measure of hydrophobicity. Here is the method:
The purity of the lipopeptides was checked by analytical RP-HPLC on an Agilent Infinity instrument equipped with a Diode Array and a C18 Sunfire column (4.6 mm × 150 mm, 3.5 μm). As mobile phase A:B mixtures were used, where A = 0.05% TFA in water and B = acetonitrile. The samples were analyzed at 217 and 254 nm in a gradient from 10% of B to 100% of B in 20 min followed by isocratic 100% of B in 10 min.
Retention times were used to determine the hydrophobicity ([Neubauer et al., 2020]). HRMS (EI+) was carried out in an Agilent 6,520 Accurate-Mass Q-TOF LC/MS spectrometer using water/acetonitrile mixtures. Results can be found in Supplementary Section S3, S4.

The subject of series [2] is Streptococcus pneumoniae R6. The series can be described thus: Growth inhibition / lysis screening of planktonic cultures (OD550/600). The class given is cell-based. Also on record: key: (+++) full inhibition; (++) partial inhibition; (+) growth retardation; -: (−) no effect. To be noted: S. pneumoniae R6, 50 and 100 μM compound added at early logarithmic phase (T1), OD550/600 followed 10 h, 37°C. Here is the method:
(§1) Planktonic cultures of selected pathogens (S. pneumoniae R6, S. pyogenes ^T, Staphylococcus aureus ^T, Escherichia coli DH10B, and Pseudomonas aeruginosa PAO1 strains) on early logarithmic-phase (T1) were assayed for their sensitivity to a broad range of DICAM compounds, as indicated in Table 1. Their bacteriostatic or lytic effect was first tested by measuring the variation of the OD550/600 as a function of time (10 h) when (50/100 μM) DICAMs were added, compared to untreated controls. The screening results, summarized in Table 1, evidenced that a potent antimicrobial activity may exist even when the negative charge of the peptide was higher than in the prototype compounds.
(§2) Susceptibility to DICAMs was first tested by growth-inhibition assays at 50 and 100 μM of compound. Briefly, working solutions at 5 mM or 10 mM DICAM in pure DMSO were prepared from DICAM stocks (40 mM in pure DMSO) and diluted with fresh culture medium to 5× the desired final concentration. Aliquots (50 µL) of these solutions were added to 200 µL of bacterium cultures grown to early exponential phase (OD550/600 c. a. 0.15–0.2 in sterile 96-well plates (Cultek, Spain). Incubation continued for 10 h at 37°C and turbidity (OD550/600) values were measured every 20 min to monitor growth and lysis, using a VersaMax microplate reader (Molecular Devices; United Kingdom). Next, the activity dependence on DICAM’s dose was examined by measuring the turbidity of treated and untreated cultures as a function of time. Also, the decay of bacterial viability (CFU/mL) at selected times of treatment was assessed by colony counting on LB-agar or TSA plates after overnight incubation at 37°C. By default, 10 μL of 10-fold serially diluted samples were plated, which set the lower detection limit at 10^2 CFU/mL (10^1 CFU/mL when 100 μL of the undiluted sample was seeded).

The test system of series [3] is S. pneumoniae D39. The class given is cell-based, Streptococcus pneumoniae.
Source text: First, the substitution of the fatty amino chain of 18 carbon atoms of the reference compound DICAM 2 by either an OMe group (methylated tripeptide DICAM 5) or an amine with 12 carbon atoms (DICAM 9) abolished the activity against all three pathogens. However, the activity remained intact when the chain of the fatty amine of prototypes DICAMs 1 and 4 was two carbon atoms shorter (DICAM 10 and DICAM 12, respectively), based on S. pneumoniae and S. pyogenes results. […] Third, Glu and Ala were tolerated as C-terminal residues of the lipotripeptides. […] In addition, deletion of the C-terminal Glu (DICAM 13) eradicated the activity against S. pneumoniae and S. aureus. However, a delay and small inhibition of S. pyogenes ^T growth was still observed. Fourth, Glu (DICAMs 19 and 20) and Orn (DICAMs 21 and 22) were tolerated as N-terminal residues, with the impact of these modifications being pathogen-dependent. […] SAR studies continued by measuring the dose dependence of DICAM’s activity at T1 with all the compounds found to be active against S. pyogenes or S. aureus in the initial screening, and all but one compound in the case of S. pneumoniae. The OD values of bacterial cultures were monitored after DICAM addition, and the decrease in the number of viable bacteria was measured relative to controls (Figures 4–6; Supplementary Figure S1). As antibacterial efficacy may decline with the bacterium dose in the inoculum ([Belley et al., 2009]; [Udekwu et al., 2009]; [Luca et al., 2013]), the assays were performed using the bacterial concentrations necessary for the fluorescence experiments in Section 2.3 (10^7–10^8 CFU/mL). At these high bacterial densities, MICs were determined as the DICAM concentration at which bacteria neither grow nor are killed (the stationary concentration (SC)), following [Udekwu et al., 2009]. By fitting the logarithmic plot of cell viability decrease vs. the DICAM dose to a Hill function (see Section 5.2.3.1) we were able to determine the maximum variation in viability (Δlogmax = ∆log f - ∆log 0, where ∆log f and ∆log 0 are the upper and lower limits of Δlog) in the assay conditions, the SC concentration (Δlog = 0), the dose required for half-variation in Δlogmax (K 1/2), and the cooperativity of the antimicrobial effect (N H).
as §2
As antibacterial efficacy may decline with the bacterium dose in the inoculum ([Belley et al., 2009]; [Udekwu et al., 2009]; [Luca et al., 2013]), activity assays were performed using the bacterial concentrations required for the fluorescence experiments in Section 2.3 (10^7–10^8 CFU/mL). At such bacterial densities, MICs were determined as the DICAM concentration at which bacteria neither grow nor are killed under assay conditions (the stationary concentration (SC)), as indicated in Section 2.2. […]

Series [4] has as its system Escherichia coli DH10B. Description: Growth inhibition screening of planktonic cultures (OD550/600). It counts as cell-based. The arrangement: key: (+++) full inhibition; (++) partial inhibition; (+) growth retardation; -: (−) no effect. To be noted: E. coli DH10B, 50 and 100 μM compound added at T1, OD550/600 followed 10 h, 37°C. Here is the method: as §1, §2
In series [5] the test system is Pseudomonas aeruginosa PAO1. Described as above. The class given is cell-based. Also on record: key: (+++) full inhibition; (++) partial inhibition; (+) growth retardation; -: (−) no effect. To be noted: P. aeruginosa PAO1, 50 and 100 μM compound added at T1, OD550/600 followed 10 h, 37°C. Here is the method:
as §1, §2

The subject of series [6] is Staphylococcus aureus T. The description is as above. It counts as cell-based. Also on record: key: (+++) full inhibition; (++) partial inhibition; (+) growth retardation; -: (−) no effect. As to conditions: S. aureus T, 50 and 100 μM compound added at T1, OD550/600 followed 10 h, 37°C. The method, then:
as §1, §2

Series [7] relates to Streptococcus pyogenes T. The series is described as above. The class given is cell-based. The arrangement: key: (+++) full inhibition; (++) partial inhibition; (+) growth retardation; -: (−) no effect. As to conditions: S. pyogenes T, 50 and 100 μM compound added at T1, OD550/600 followed 10 h, 37°C. The method, then:
as §1, §2

The test system of series [8] is Escherichia coli DH10B. Description: Resting-cell viability (CFU) with 0.5 mM EDTA. The class given is cell-based. As to conditions: E. coli DH10B, 100 µM compound, 3 h incubation. Here is the method:
(§3) Addition of tested compounds to the culture medium had little or no effect on bacterial growth, even at a concentration of 100 μM (Table 1). Since inactivity could arise from the inability of DICAMs to cross the outer membrane, we next tested their effect on bacterial suspensions in the absence or the presence of 0.5 mM EDTA, an outer membrane permeating agent. A decrease of approximately 90% in bacterial viability was observed after 3 h treatment with DICAM 2 and DICAM 4, compared to controls in EDTA-containing buffer (Supplementary Figure S5). No variations were found with the other compounds tested (Table 1), showing that only DICAMs containing Ala/Asn- Pro -Glu tripeptides were able to access the cell membrane and kill these pathogens when the outer membrane permeability was enhanced.
(§4) For activity assays on resting cells, bacteria grown to exponential phase (OD600 ≈ 0.3) were centrifuged and washed with 20 mM Tris-HCl (pH 7.5), adjusting the final OD600 to ≈0.6 (≈10^8 CFU/mL) with the same buffer. If required, EDTA (0.5 mM final concentration) was next added and the bacterial suspension was dispensed (225 µL per well) in 96-well plates, and then treated with 100 µM DICAM (25 µL). Samples were incubated at 37°C for 3 h and turbidity measurements were taken at selected intervals, also measuring the decay in cell viability at the end of incubation. Controls with buffer (with and without 1% DMSO), 100 µM DICAM, or 0.5 mM EDTA were run in parallel.

Series [9] relates to Pseudomonas aeruginosa PAO1. The series can be described thus: Resting-cell viability (CFU) with 0.5 mM EDTA. The class given is cell-based. To be noted: P. aeruginosa PAO1, 100 µM compound, 3 h incubation. The method, then: as §3, §4

In turn, “Ala- Pro -Glu-NH-C12H25 · HCl [DICAM 11]” gave a Retention time in series [1] of 15.29 min. For the same substance, the “Growth halt or lysis (50/100 μM), Spn” value in [2] is reported as “-”.
“Ala- Pro -Glu-NH-C16H33 · HCl [DICAM 12]” displayed a Retention time in series [1] of 17.57 min. Besides, the “Growth halt or lysis (50/100 μM), Spn” value in series [2] is “+++”. The “Reduction of the number of viable cells at saturating doses” value in series [3] (S. pneumoniae D39, within 60 min) is given as at least 4.6 log-units. Besides, the “Reduction of the number of viable cells at 3 × SC, S. pneumoniae” value in [3] (after 1-h incubation at 3 × SC values) is 99.2%–99.8.
Turning to “Ala- Pro -Trp-NH-C18H37 · HCl [DICAM 16]”, the Retention time in series [1] amounted to 21.04 min. In [2], the “Growth halt or lysis (50/100 μM), Spn” value was “-”. Further, in series [4], the “Growth halt or lysis (50/100 μM), Ec” value is “-”. In [5], the “Growth halt or lysis (50/100 μM), Pa” value is reported as “-”. Moreover, in [6], the “Growth halt or lysis (50/100 μM), Sa T” value is reported as “-”. Besides, in series [7], the “Growth halt or lysis (50/100 μM), Spy T” value was “-”. In addition, the “CFU's decay in the presence of 0.5 mM EDTA, Ec (data in parenthesis)” value (“CFU's decay … Ec (data in parenthesis)” below) in [8] is listed as “(−) ((−) ≤ 0.3 log-units)”. Also, the “CFU's decay in the presence of 0.5 mM EDTA, Pa (data in parenthesis)” value (from here on “CFU's decay … Pa (data in parenthesis)”) in [9] was “(−) ((−) ≤ 0.3 log-units)”.
Substance “Asn- Ala -Glu-NH-C18H37 · HCl [DICAM 17]” yielded a Retention time in series [1] of 18.63 min. In series [2], the “Growth halt or lysis (50/100 μM), Spn” value was “-”. Moreover, in [4], the “Growth halt or lysis (50/100 μM), Ec” value is “-”. Besides, the “Growth halt or lysis (50/100 μM), Pa” value in series [5] is given as “-”. The “Growth halt or lysis (50/100 μM), Sa T” value in series [6] was “-”. Moreover, the “Growth halt or lysis (50/100 μM), Spy T” value in [7] was “-”. Also, the “CFU's decay … Ec (data in parenthesis)” value in [8] is reported as “(−) ((−) ≤ 0.3 log-units)”. In addition, the “CFU's decay … Pa (data in parenthesis)” value in series [9] was “(−) ((−) ≤ 0.3 log-units)”.
On to Asn- Pro -Glu-OMe · HCl [DICAM 5], for which, in series [1], the Retention time came to 5.15 min. Also, in series [2], the “Growth halt or lysis (50/100 μM), Spn” value is “-”.
On to Cbz-Ala- Pro -Trp-NH-C18H37 [DICAM 15], for which, in [1], the Retention time was 23.18 min. Besides, the “Growth halt or lysis (50/100 μM), Spn” value in [2] is “-”. Also, the “Growth halt or lysis (50/100 μM), Ec” value in [4] was “-”. Moreover, the “Growth halt or lysis (50/100 μM), Pa” value in series [5] was “-”. Besides, the “CFU's decay … Ec (data in parenthesis)” value in series [8] is “(−) ((−) ≤ 0.3 log-units)”. Moreover, the “CFU's decay … Pa (data in parenthesis)” value in [9] is on record as “(−) ((−) ≤ 0.3 log-units)”.
In the case of “Cbz-Asn- Pro -Glu(O^tBu)-NH-C18H37 [DICAM 8]”, the “Growth halt or lysis (50/100 μM), Spn” value in [2] was “-”.
For Cbz-Asn- Pro -Glu-NH-C12H25 [DICAM 9], the Retention time in series [1] is recorded as 15.80 min. The “Growth halt or lysis (50/100 μM), Spn” value in series [2] is “-”.
In series [1], Pro -Glu-NH-C18H37 · HCl [DICAM 18] had a Retention time of 19.54 min. Further, the “Growth halt or lysis (50/100 μM), Spn” value in series [2] is given as “-”. Further, in series [4], the “Growth halt or lysis (50/100 μM), Ec” value is reported as “-”. The “Growth halt or lysis (50/100 μM), Pa” value in series [5] is on record as “-”.

These data come from publication PMC11329928, “Design, synthesis and structure-activity relationship (SAR) studies of an unusual class of non-cationic fatty amine-tripeptide conjugates as novel synthetic antimicrobial agents” (Frontiers in Pharmacology, 2024).
